{"source": "patent US11339171B2", "about": "“MDM2 inhibitors” (Gan & Lee Pharmaceuticals, priority 2017, dated 2022)", "key": {"[1]": {"test_system": "human osteosarcoma cell line SJSA-1", "experiment": "Inhibition of proliferation of human osteosarcoma cell line SJSA-1 (DAPI staining, In Cell Analyzer)", "details": "labels are Example numbers; the compounds with S-configuration are meant"}, "[2]": {"molecular_target": "T1, MDM2 (Homo sapiens, UniProt Q00987)", "T1 construct": "made in house", "T1 sequence (Q00987 whole entry)": "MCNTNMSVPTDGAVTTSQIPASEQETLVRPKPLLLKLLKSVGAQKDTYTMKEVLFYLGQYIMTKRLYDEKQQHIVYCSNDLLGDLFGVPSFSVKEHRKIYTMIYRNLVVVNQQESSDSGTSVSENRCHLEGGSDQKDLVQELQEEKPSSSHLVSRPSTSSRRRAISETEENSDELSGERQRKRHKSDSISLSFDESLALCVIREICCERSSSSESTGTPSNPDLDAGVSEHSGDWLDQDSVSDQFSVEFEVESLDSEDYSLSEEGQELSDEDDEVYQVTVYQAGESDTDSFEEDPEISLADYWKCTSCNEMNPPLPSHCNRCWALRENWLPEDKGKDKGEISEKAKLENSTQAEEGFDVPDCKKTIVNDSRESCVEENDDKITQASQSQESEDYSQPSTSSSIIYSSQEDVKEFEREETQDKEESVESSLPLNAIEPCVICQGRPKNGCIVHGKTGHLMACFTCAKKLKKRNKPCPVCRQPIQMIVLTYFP", "experiment": "Inhibition test of MDM2-P53 (GST-MDM2, Biotin-P53, Anti-GST-Tb, SA-XL665)", "format": "binding", "summary_of_the_method": "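Compounds, serially diluted 5-fold (twelve concentrations), were shaken for 90 min at 25° C with a mix of GST-MDM2 (4 nM final), Biotin-P53, anti-GST-Tb and SA-XL665. Buffer: 1×PBS, 0.1% BSA, 5 mM DTT, 1 mM AEBSF; signal read on a microplate reader.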"}}}
{"molecule": "COc1cc(F)ccc1-c1nc2c(n1C(C)C)C1(C(=O)Nc3cc(Cl)ccc31)N(c1cc(Cl)ccc1C)C2=O", "note": "(stereo not drawn) [Example 4, 6-chloro-5′-(5-chloro-2-methylphenyl)-2′-(4-fluoro-2-methoxyphenyl)-3′-isopropyl-3′H-spiro[dihydroindole-3,4′-pyrrolo[3,4-d]imidazole]-2,6′(5′H)-dione]", "values": [{"measurement": "inhibitory effect on human osteosarcoma cell line SJSA-1 compared with positive control compound HDM201", "setting": "[1]", "value": "better"}]}
{"molecule": "COc1ccc(-c2nc3c(n2C(C)C)C2(C(=O)Nc4cc(Cl)ccc42)N(c2cc(Cl)ccc2C)C3=O)c(OC)c1", "note": "(stereo not drawn) [Example 9, 6-chloro-5′-(5-chloro-2-methylphenyl)-2′-(2,4-dimethoxyphenyl)-3′-isopropyl-3′H-spiro[dihydroindole-3,4′-pyrrolo[3,4-d]imidazole]-2,6′(5′H)-dione]", "values": [{"measurement": "inhibitory effect on human osteosarcoma cell line SJSA-1 compared with positive control compound HDM201", "setting": "[1]", "value": "better"}]}
{"molecule": "COc1ccc(C#N)cc1-c1nc2c(n1C(C)C)C1(C(=O)Nc3cc(Cl)ccc31)N(c1cc(Cl)ccc1C)C2=O", "note": "(stereo not drawn) [Example 13, 3-(6-chloro-5′-(5-chloro-2-methylphenyl)-3′-isopropyl-2,6′-dioxo-5′,6′-dihydro-3′H-spiro[dihydroindole-3,4′-pyrrolo[3,4-d]imidazole]-2′-yl)-4-methoxybenzonitrile]", "values": [{"measurement": "inhibitory effect on human osteosarcoma cell line SJSA-1 compared with positive control compound HDM201", "setting": "[1]", "value": "better"}]}
{"molecule": "COc1cc(N(C)C)ccc1-c1nc2c(n1C(C)C)C1(C(=O)Nc3cc(Cl)ccc31)N(c1cc(Cl)ccc1C)C2=O", "note": "(stereo not drawn) [Example 23, 6-chloro-5′-(5-chloro-2-methylphenyl)-2′-(4-(dimethylamino)-2-methoxyphenyl)-3′-isopropyl-3′H-spiro[dihydroindole-3,4′-pyrrolo[3,4-d]imidazole]-2,6′(5′H)-dione]", "values": [{"measurement": "inhibitory effect on human osteosarcoma cell line SJSA-1 compared with positive control compound HDM201", "setting": "[1]", "value": "better"}]}
{"molecule": "COc1cc(C)ccc1-c1nc2c(n1C(C)C)C1(C(=O)Nc3cc(Cl)ccc31)N(c1cc(Cl)ccc1C)C2=O", "note": "(stereo not drawn) [Example 24, 6-chloro-5′-(5-chloro-2-methylphenyl)-3′-isopropyl-2′-(2-methoxy-4-methylphenyl)-3′H-spiro[dihydroindole-3,4′-pyrrolo[3,4-d]imidazole]-2,6′(5′H)-dione]", "values": [{"measurement": "inhibitory effect on human osteosarcoma cell line SJSA-1 compared with positive control compound HDM201", "setting": "[1]", "value": "better"}]}
{"molecule": "CNc1ccc(-c2nc3c(n2C(C)C)C2(C(=O)Nc4cc(Cl)ccc42)N(c2cc(Cl)ccc2C)C3=O)c(OC)c1", "note": "(stereo not drawn) [Example 25]", "values": [{"measurement": "inhibitory effect on human osteosarcoma cell line SJSA-1 compared with positive control compound HDM201", "setting": "[1]", "value": "better"}]}
{"molecule": "COc1cc(C(C)C)ccc1-c1nc2c(n1C(C)C)C1(C(=O)Nc3cc(Cl)ccc31)N(c1cc(Cl)ccc1C)C2=O", "note": "(stereo not drawn) [Example 32, 6-chloro-5′-(5-chloro-2-methylphenyl)-3′-isopropyl-2′-(4-isopropyl-2-methoxyphenyl)-3′H-spiro[dihydroindole-3,4′-pyrrolo[3,4-d]imidazole]-2,6′(5′H)-dione]", "values": [{"measurement": "inhibitory effect on human osteosarcoma cell line SJSA-1 compared with positive control compound HDM201", "setting": "[1]", "value": "better"}]}
{"molecule": "CCc1ccc(-c2nc3c(n2C(C)C)C2(C(=O)Nc4cc(Cl)ccc42)N(c2cc(Cl)ccc2C)C3=O)c(OC)c1", "note": "(stereo not drawn) [Example 33, 6-chloro-5′-(5-chloro-2-methylphenyl)-2′-(4-ethyl-2-methoxyphenyl)-3′-isopropyl-3′H-spiro[dihydroindole-3,4′-pyrrolo[3,4-d]imidazole]-2,6′(5′H)-dione]", "values": [{"measurement": "inhibitory effect on human osteosarcoma cell line SJSA-1 compared with positive control compound HDM201", "setting": "[1]", "value": "better"}]}
{"molecule": "COc1cc(OC)c(-c2nc3c(n2C(C)C)C2(C(=O)Nc4cc(Cl)ccc42)N(c2cc(Cl)ccc2C)C3=O)cc1C", "note": "(stereo not drawn) [Example 83, 6-chloro-5′-(5-chloro-2-methylphenyl)-2′-(2,4-dimethoxy-5-methylphenyl)-3′-isopropyl-3′H-spiro[dihydroindole-3,4′-pyrrolo[3,4-d]imidazole]-2,6′(5′H)-dione]", "values": [{"measurement": "inhibitory effect on human osteosarcoma cell line SJSA-1 compared with positive control compound HDM201", "setting": "[1]", "value": "better"}]}
{"molecule": "COc1cc(C2CC2)ccc1-c1nc2c(n1C(C)C)C1(C(=O)Nc3cc(Cl)ccc31)N(c1cc(Cl)ccc1C)C2=O", "note": "(stereo not drawn) [Example 86, 6-chloro-5′-(5-chloro-2-methylphenyl)-2′-(4-cyclopropyl-2-methoxyphenyl)-3′-isopropyl-3′H-spiro[dihydroindole-3,4′-pyrrolo[3,4-d]imidazole]-2,6′(5′H)-dione]", "values": [{"measurement": "inhibitory effect on human osteosarcoma cell line SJSA-1 compared with positive control compound HDM201", "setting": "[1]", "value": "better"}]}
{"molecule": "COc1cc(C(C)C)ccc1-c1nc2c(n1C(C)C)C1(C(=O)Nc3cc(Cl)ccc31)N(c1cc(Cl)cnc1C)C2=O", "note": "(stereo not drawn) [Example 89, 6-chloro-5′-(5-chloro-2-methylpyridin-3-yl)-3′-isopropyl-2′-(4-isopropyl-2-methoxyphenyl)-3′H-spiro[dihydroindole-3,4′-pyrrolo[3,4-d]imidazole]-2,6′(5′H)-dione]", "values": [{"measurement": "inhibitory effect on human osteosarcoma cell line SJSA-1 compared with positive control compound HDM201", "setting": "[1]", "value": "better"}]}
{"molecule": "COc1cc(N(C)C)c(C)cc1-c1nc2c(n1C(C)C)C1(C(=O)Nc3cc(Cl)ccc31)N(c1cc(Cl)ccc1C)C2=O", "note": "(stereo not drawn) [Example 91, 6-chloro-5′-(5-chloro-2-methylphenyl)-2′-(4-(dimethylamino)-2-methoxy-5-methylphenyl)-3′-isopropyl-3′H-spiro[dihydroindole-3,4′-pyrrolo[3,4-d]imidazole]-2,6′(5′H)-dione]", "values": [{"measurement": "inhibitory effect on human osteosarcoma cell line SJSA-1 compared with positive control compound HDM201", "setting": "[1]", "value": "better"}]}
{"molecule": "CCN(C)c1ccc(-c2nc3c(n2C(C)C)C2(C(=O)Nc4cc(Cl)ccc42)N(c2cc(Cl)ccc2C)C3=O)c(OC)c1", "note": "(stereo not drawn) [Example 99, 6-chloro-5′-(5-chloro-2-methylphenyl)-2′-(4-(ethyl(methyl)amino)-2-methoxyphenyl)-3′-isopropyl-3′H-spiro[dihydroindole-3,4′-pyrrolo[3,4-d]imidazole]-2,6′(5′H)-dione]", "values": [{"measurement": "inhibitory effect on human osteosarcoma cell line SJSA-1 compared with positive control compound HDM201", "setting": "[1]", "value": "better"}]}
{"molecule": "COc1cc(C(C)(C)C)ccc1-c1nc2c(n1C(C)C)C1(C(=O)Nc3cc(Cl)ccc31)N(c1cc(Cl)ccc1C)C2=O", "note": "(stereo not drawn) [Example 101, 2′-(4-(tert-butyl)-2-methoxyphenyl)-6-chloro-5′-(5-chloro-2-methylphenyl)-3′-isopropyl-3′H-spiro[dihydroindole-3,4′-pyrrolo[3,4-d]imidazole]-2,6′(5′H)-dione]", "values": [{"measurement": "inhibitory effect on human osteosarcoma cell line SJSA-1 compared with positive control compound HDM201", "setting": "[1]", "value": "better"}]}
{"molecule": "COc1cc(C2CC2)ncc1-c1nc2c(n1C(C)C)C1(C(=O)Nc3cc(Cl)ccc31)N(c1cccc(Cl)c1)C2=O", "note": "(stereo not drawn) [Example 106, 6-chloro-5′-(3-chlorophenyl)-2′-(6-cyclopropyl-4-methoxypyridin-3-yl)-3′-isopropyl-3′H-spiro[dihydroindole-3,4′-pyrrolo[3,4-d]imidazole]-2,6′(5′H)-dione]", "values": [{"measurement": "inhibitory effect on human osteosarcoma cell line SJSA-1 compared with positive control compound HDM201", "setting": "[1]", "value": "better"}]}
{"molecule": "COc1cc(C2CC2)cc(OC)c1-c1nc2c(n1C(C)C)C1(C(=O)Nc3cc(Cl)ccc31)N(c1cc(Cl)ccc1C)C2=O", "note": "(stereo not drawn) [Example 108, 6-chloro-5′-(5-chloro-2-methylphenyl)-2′-(4-cyclopropyl-2,6-dimethoxyphenyl)-3′-isopropyl-3′H-spiro[dihydroindole-3,4′-pyrrolo[3,4-d]imidazole]-2,6′(5′H)-dione]", "values": [{"measurement": "inhibitory effect on human osteosarcoma cell line SJSA-1 compared with positive control compound HDM201", "setting": "[1]", "value": "better"}]}
{"molecule": "COc1nc(N2CCCC2)ncc1-c1nc2c(n1C(C)C)C1(C(=O)Nc3cc(Cl)ccc31)N(c1cc(Cl)ccc1C)C2=O", "note": "(stereo not drawn) [Example 114]", "values": [{"measurement": "inhibitory effect on human osteosarcoma cell line SJSA-1 compared with positive control compound HDM201", "setting": "[1]", "value": "better"}]}
{"molecule": "CCN(C)c1ncc(-c2nc3c(n2C(C)C)C2(C(=O)Nc4cc(Cl)ccc42)N(c2cc(Cl)ccc2C)C3=O)c(OC)n1", "note": "(stereo not drawn) [Example 119, 6-chloro-5′-(5-chloro-2-methylphenyl)-2′-(2-(ethyl(methyl)amino)-4-methoxypyrimidin-5-yl)-3′-isopropyl-3′H-spiro[dihydroindole-3,4′-pyrrolo[3,4-d]imidazole]-2,6′(5′H)-dione]", "values": [{"measurement": "inhibitory effect on human osteosarcoma cell line SJSA-1 compared with positive control compound HDM201", "setting": "[1]", "value": "better"}]}
{"molecule": "COc1nc(C2CC2)ncc1-c1nc2c(n1C(C)C)C1(C(=O)Nc3cc(Cl)ccc31)N(c1cc(Cl)ccc1C)C2=O", "note": "(stereo not drawn) [Example 121, 6-chloro-5′-(5-chloro-2-methylphenyl)-2′-(2-cyclopropyl-4-methoxypyrimidin-5-yl)-3′-isopropyl-3′H-spiro[dihydroindole-3,4′-pyrrolo[3,4-d]imidazole]-2,6′(5′H)-dione]", "values": [{"measurement": "inhibitory effect on human osteosarcoma cell line SJSA-1 compared with positive control compound HDM201", "setting": "[1]", "value": "better"}]}
{"molecule": "CCOc1ncc(-c2nc3c(n2C(C)C)C2(C(=O)Nc4cc(Cl)ccc42)N(c2cc(Cl)ccc2C)C3=O)c(OC)n1", "note": "(stereo not drawn) [Example 127]", "values": [{"measurement": "inhibitory effect on human osteosarcoma cell line SJSA-1 compared with positive control compound HDM201", "setting": "[1]", "value": "better"}]}
{"molecule": "COc1nc(OCC(F)(F)F)ncc1-c1nc2c(n1C(C)C)C1(C(=O)Nc3cc(Cl)ccc31)N(c1cc(Cl)ccc1C)C2=O", "note": "(stereo not drawn) [Example 141, 6-chloro-5′-(5-chloro-2-methylphenyl)-3′-isopropyl-2′-(4-methoxy-2-(2,2,2-trifluoroethoxy)pyrimidin-5-yl)-3′H-spiro[dihydroindole-3,4′-pyrrolo[3,4-d]imidazole]-2,6′(5′H)-dione]", "values": [{"measurement": "inhibitory effect on human osteosarcoma cell line SJSA-1 compared with positive control compound HDM201", "setting": "[1]", "value": "better"}]}
{"molecule": "COc1cc(C2CC2)ccc1-c1nc2c(n1C(C)C)C1(C(=O)Nc3cc(Cl)ccc31)N(c1cc(Cl)cnc1C)C2=O", "note": "(stereo not drawn) [Example 145, 6-chloro-5′-(5-chloro-2-methylpyridin-3-yl)-2′-(4-cyclopropyl-2-methoxyphenyl)-3′-isopropyl-3′H-spiro[dihydroindole-3,4′-pyrrolo[3,4-d]imidazole]-2,6′(5′H)-dione]", "values": [{"measurement": "inhibitory effect on human osteosarcoma cell line SJSA-1 compared with positive control compound HDM201", "setting": "[1]", "value": "better"}]}
{"molecule": "COc1cc(F)c(-c2nc3c(n2C(C)C)[C@@]2(C(=O)Nc4cc(Cl)ccc42)N(c2cc(Cl)ccc2C)C3=O)c(OC)c1", "note": "[Example S-130, (S)-6-chloro-5′-(5-chloro-2-methylphenyl)-2′-(2-fluoro-4,6-dimethoxyphenyl)-3′-isopropyl-3′H-spiro[dihydroindole-3,4′-pyrrolo[3,4-d]imidazole]-2,6′(5′H)-dione]", "values": [{"measurement": "IC50", "setting": "[2]", "value": 5.59, "unit": "nM"}]}
{"molecule": "COc1ncc(-c2nc3c(n2C(C)C)[C@@]2(C(=O)Nc4cc(Cl)ccc42)N(c2cc(Cl)ccc2C#N)C3=O)c(OC)n1", "note": "[Example S-151, (S)-4-chloro-2-(6-chloro-2′-(2,4-dimethoxypyrimidin-5-yl)-3′-isopropyl-2,6′-dioxo-3′,6′-dihydro-5′H-spiro[dihydroindole-3,4′-pyrrolo[3,4-d]imidazole]-5′-yl)benzonitrile]", "values": [{"measurement": "IC50", "setting": "[2]", "value": 1410, "unit": "nM"}]}
